# What was measured:
# Surinam grass [1] = assay: Test B pre-/postemergence herbicide test; assay type: in vivo, Urochloa decumbens; conditions: for Plant response rating (0 to 100 scale), Surinam Grass: 0 is no effect, 100 is complete control, preemergence
# Summary of the method: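 Pre: seeds sown, then sprayed. Post: 1–4-leaf plants (2–18 cm) sprayed at the same time. Paddy: flooded, treated at 2-leaf stage. Formulation: non-phytotoxic solvent with surfactant. Greenhouse 13–15 days; visual 0–100 score relative to controls.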
# common ragweed = assay: Test C pre-/postemergence herbicide test; assay type: in vivo, Ambrosia elatior; parameters: key to Plant response rating, Ragweed: 0 = no effect, 100 = complete control; conditions: preemergence; for Plant response rating (0 = no effect, 100 = complete control), Ragweed: 125 g ai/ha
# Summary of the method: (§1)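 Preemergence: seeds planted and treated with compound in non-phytotoxic solvent with surfactant; postemergence: plants at 2 to 18 cm (1- to 4-leaf stage) sprayed likewise. Kept in greenhouse 12 to 14 days, then visually rated against controls, 0 (no effect) to 100 (complete control).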
# goosegrass = assay: Test C pre-/postemergence herbicide test; assay type: in vivo, Eleusine indica; conditions: preemergence; for Plant response rating (0 = no effect, 100 = complete control), Goosegrass: 125 g ai/ha
# Summary of the method: as §1
# wheat = assay: Test B postemergence herbicide test; assay type: in vivo, Triticum aestivum; parameters: key to Wheat plant response rating: 0 = no effect, 100 = complete control
# Summary of the method: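 Greenhouse test; postemergence application to plants at 1–4 leaves (2–18 cm); paddy species at 2 leaves; evaluated visually vs controls at 13–15 days; scale 0–100 (100 = complete control).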
# eastern black nightshade = assay: Test C pre-/postemergence herbicide test; assay type: in vivo, Solanum ptycanthum; conditions: preemergence; for Plant response rating (0 = no effect, 100 = complete control), Nightshade: 125 g ai/ha
# Summary of the method: as §1
# Surinam grass [2] = assay: Test C pre-/postemergence herbicide test; assay type: in vivo, Urochloa decumbens; conditions: preemergence; for Plant response rating (0 = no effect, 100 = complete control), Surinam Grass: 125 g ai/ha
# Summary of the method: as §1
# [3] = 125 g ai/ha, visual rating, scale 0 (no effect) to 100 (complete control), postemergence
# [4] = Postemergence, 500 g ai/ha, scale 0 (no effect) to 100 (complete control)
# [5] = 500 g ai/ha, scale 0 to 100 (0 no effect, 100 complete control), visual, 12 to 14 days
# [6] = 500 g ai/ha, scale 0 to 100, 0 no effect, 100 complete control, preemergence
# [7] = postemergence, 125 g ai/ha, scale 0 to 100
Structure (SMILES),"Plant response rating (0 to 100 scale), Surinam Grass (Surinam grass [1]; 125 g ai/ha)",Surinam Grass plant response rating (Surinam grass [1]; [3]),Surinam Grass plant response rating (Surinam grass [1]; [4]),"Plant response rating, Ragweed (common ragweed; 62 g ai/ha, scale 0 to 100)","Plant response rating (0 = no effect, 100 = complete control), Ragweed (common ragweed)","Plant response rating, Ragweed (common ragweed; [5])","Plant response rating, Goosegrass (goosegrass; 62 g ai/ha, scale 0 to 100)","Plant response rating (0 = no effect, 100 = complete control), Goosegrass (goosegrass)","Plant response rating, Goosegrass (goosegrass; 250 g ai/ha, scale 0-100)","Plant response rating, Goosegrass (goosegrass; [5])",Wheat plant response rating (wheat; [3]),Wheat plant response rating (wheat; [6]),Wheat plant response rating (wheat; [4]),"Plant response rating, Nightshade (eastern black nightshade; 62 g ai/ha, scale 0 to 100)","Plant response rating (0 = no effect, 100 = complete control), Nightshade (eastern black nightshade)","Plant response rating, Nightshade (eastern black nightshade; [5])","Plant response rating, Surinam Grass (Surinam grass [2]; 62 g ai/ha, scale 0 to 100)","Plant response rating (0 = no effect, 100 = complete control), Surinam Grass (Surinam grass [2])","Plant response rating, Surinam Grass (Surinam grass [2]; [5])",other results
Cc1nn(C(C)(C)C)nc1C(=O)Nc1cccc(C(=O)N(C)C)c1 [Compound 391],100,10,30,85,100,100,80,85,90,95,0,100,10,90,95,95,85,95,95,"Plant response rating, Ragweed (common ragweed; 250 g ai/ha, scale 0-100): 100; Plant response rating, Nightshade (eastern black nightshade; 250 g ai/ha, scale 0-100): 95; Plant response rating, Surinam Grass (Surinam grass [2]; 250 g ai/ha, scale 0-100): 95"
CCNC(=O)c1ccc(F)c(N(C(C)=O)C(=O)c2cc(C(C)(C)C)nn2CC)c1 [Compound 399],90,20,40,95,100,100,95,100,100,100,10,100,30,95,100,100,95,95,100,–
CCN(CC)C(=O)c1cccc(NC(=O)c2nn(C(C)(C)C)nc2C)c1 [Compound 418],90,–,20,50,70,100,55,100,100,100,–,100,20,95,95,100,50,85,100,Surinam Grass plant response rating (Surinam grass [1]; [7]): 20; Wheat plant response rating (wheat; [7]): 10

# From US20060069132A1, “Azolecarboxamide herbicides” (priority 2004, published 2006)
